{"source": "patent US6589580B1", "about": "“Method and apparatus for application of surface treatment to food products” (Kraft Foods Holdings, Inc., priority 1999, dated 2003)", "tested_on": "mold growth on cheese chunks", "experiment": "Mold growth on refrigerated cheese chunks exposed to ambient air after surface treatment", "experimental": "In one particular embodiment, the material applied comprises a suspension of natamycin in an aqueous saline solution. […] In a preferred embodiment of the invention, the process applies an average surface concentration of about 1.0 to 1.1 μg/cm^2 to ensure that an adequate concentration is applied over substantially the entire exterior surface. Application of natamycian at these average surface concentrations with the apparatus of the invention ensures that substantially all of the cheese chunk surface area has a surface concentration of at least about 0.5 μg/cm^2.\nThe efficacy of an antimycotic agent may be measured in terms of the number of days during which mold growth is retarded in treated samples, relative to untreated control samples. Generally, if mold growth is retarded by 45 days or more, the antimycotic may be considered effective. The absolute length of time during which mold growth is delayed depends on the mold load in the ambient air, in addition to effects of antimycotic agents.", "data": [{"smiles": "C[C@@H]1C/C=C/C=C/C=C/C=C/[C@H](O[C@@H]2O[C@H](C)[C@@H](O)[C@H](N)[C@@H]2O)C[C@@H]2O[C@](O)(C[C@@H](O)C[C@H]3O[C@@H]3/C=C/C(=O)O1)C[C@H](O)[C@H]2C(=O)O", "note": "[natamycin]", "values": [{"measurement": "number of days by which mold growth is retarded (relative to untreated control samples)", "setting": "preferred embodiment (average surface concentration about 1.0 to 1.1 μg/cm^2), refrigerated at 35° F. to 45° F., exposed to ambient air", "result": "over 45 days"}, {"measurement": "time cheese chunks remained mold-free", "setting": "preferred embodiment, in some cases, refrigerated at 35° F. to 45° F., exposed to ambient air", "result": "over 200 days"}, {"measurement": "surface concentration level found effective in preventing mold growth", "setting": "refrigerated cheese chunks exposed to ambient air for extended periods, natamycin suspension in aqueous saline solution applied by spray", "result": "about 0.5 μg/cm^2"}]}]}
